Assay results: patent publication US20190071670A1, “Methods Of Treatment For Alpha-1 Antitrypsin Deficiency” (Arrowhead Pharmaceuticals, Inc., priority 2016, published 2019)
“And” between values parts separate entries of the source, which are not always exact repeats. Equal entries are not always repeated.

System: hAAT
Test: Serum hAAT protein levels in PiZ mice (ELISA)
Type: in vivo, human (expressed in PiZ mice)
Conditions: for Normalized serum hAAT levels / Serum hAAT normalized to Day 1 and control / Serum hAAT normalized to day 1: PiZ mice; for Normalized serum hAAT levels: normalized to day 1 and saline control; for Serum hAAT normalized to Day 1 and control: single IV 4 mg/kg + 8 mg/kg MLP delivery polymer; for Serum hAAT normalized to day 1: single IV 6 mg/kg with 6 mg/kg MLP delivery polymer; for Serum hAAT normalized to day 1 and controls: female PiZ mice, single IV 8 mg/kg + 8 mg/kg MLP delivery polymer
Experimental: Human AAT protein levels in serum were monitored for 29 days. At the indicated times, blood samples were collected and assayed for hAAT by ELISA. Day 1 samples were collected prior to trigger administration. For mRNA analysis, 3-4 mice were euthanized at each of days 3, 8, 15, 22, and 29. For euthanized mice, cardiac stick were performed for serum isolation for AAT ELISA (200 μl serum). Half of the left lateral liver lobe was collected and snap-freeze in liquid nitrogen for RNA isolation. The remainder of the left lobes were embedded into paraffin blocks for PAS-D staining with hematoxylin as counter-stain. Serum hAAT levels in mice given AAT Duplex Pair SEQ ID NO: 5/6 were 95% reduced on day 8 and remained reduced to day 29, at which time they were 79% reduced. Mice given AAT Duplex Pair SEQ ID NO: 5/6 were euthanized at either day 3, 8, 15, 22 or 29. Mice given saline or Luciferase siRNA control (SEQ ID 7/8) were euthanized on day 29. Levels of hAAT mRNA in the livers were measured by RT-qPCR. The hAAT mRNA in mice given AAT Duplex Pair SEQ ID NO: 5/6 was reduced by 97% on day 3 and remained reduced on day 29, at which time levels were 56% reduced. The size of the globules and the area of the liver covered by globules was digitally quantitated from liver specimens stained with PAS-D. Duplex Pair SEQ ID NO: 5/6 treated mice had 70% smaller globules at day 15 and 62% smaller globules at day 29. The area of the liver covered with globules was 83% reduced on day 15 and 72% reduced on day 29 (FIG. 5).

“Duplex Pair SEQ ID NO: 5/6: double-stranded AAT RNAi agent: modified antisense strand SEQ ID NO: 5 annealed to Chol-TEG sense strand SEQ ID NO: 6 (antisense TGGAACUUGGUGAUGAUAUTT; sense UAUAUAUCAUCACCAAGUUCCAT; Chol-TEG on sense strand; chemical modifications; antisense strand of dsRNA; modified_base 7 /mod_base = “2′-3′ seco corresponding nucleotide”; modified_base 2,4,6,8,10,12,14,16,18 /mod_base = “2′-deoxy-2′-fluoro corresponding nucleoside”; modified_base 3,5,9,11,13,15,17,19 /mod_base = “2′-O-methyl corresponding nucleoside”; modified_base 21 /mod_base = “5′-phosphorothioate corresponding nucleotide”; sense strand of dsRNA; modified_base 2 /mod_base = “2′-hydroxy corresponding nucleoside”; modified_base 4,6,8,10,12,14,16,18,20,22 /mod_base = “2′-deoxy-2′-fluoro corresponding nucleoside”; …)” was tested, and the “Normalized serum hAAT levels” value (single IV 4 mg/kg + 4 mg/kg MLP, day 1) was 1.00, the “Normalized serum hAAT levels” value (single IV 4 mg/kg + 4 mg/kg MLP, day 8) was 0.03 ± 0.01 and the “Normalized serum hAAT levels” value (single IV 4 mg/kg + 4 mg/kg MLP, day 15) was 0.23 ± 0.04. The “Normalized serum hAAT levels” value (single IV 4 mg/kg + 4 mg/kg MLP, day 20) was 0.32 ± 0.05, the “Normalized serum hAAT levels” value (single IV 4 mg/kg + 4 mg/kg MLP, day 29) was 0.66 ± 0.10 and the “Normalized serum hAAT levels” value (single IV 4 mg/kg + 4 mg/kg MLP, day 36) was 0.83 ± 0.06. For the same substance, the “Normalized serum hAAT levels” value (single IV 4 mg/kg + 4 mg/kg MLP, day −7) was 0.68 ± 0.07, the “Serum hAAT normalized to Day 1 and control” value (Day 1) was 1.00 and the “Serum hAAT normalized to Day 1 and control” value (Day 3) was 0.20 ± 0.04. For the same substance, the “Serum hAAT normalized to Day 1 and control” value (Day 8) was 0.05 ± 0.01, the “Serum hAAT normalized to Day 1 and control” value (Day 15) was 0.09 ± 0.01 and the “Serum hAAT normalized to Day 1 and control” value (Day 22) was 0.28 ± 0.05. The “Serum hAAT normalized to Day 1 and control” value (Day 29) was 0.35 ± 0.05, the “Serum hAAT normalized to Day 1 and control” value (Day 35) was 0.81 ± 0.12 and the “Serum hAAT normalized to Day 1 and control” value (Day −3) was 0.73 ± 0.13. For the same substance, the “Serum hAAT normalized to day 1” value (day 1 (reference)) was 1.00, the “Serum hAAT normalized to day 1” value (day 3, listed as AAT RNAi agent (SEQ ID NO: 5/6), 6 mg/kg) was 0.326 ± 0.021 and 0.274 ± 0.072 and the “Serum hAAT normalized to day 1” value (day 10) was 0.105 ± 0.033. The “Normalized serum hAAT levels” value (single IV 8 mg/kg + 2 mg/kg MLP, day 1) was 1.00, the “Normalized serum hAAT levels” value (single IV 8 mg/kg + 2 mg/kg MLP, day 8) was 0.09 ± 0.05 and the “Normalized serum hAAT levels” value (single IV 8 mg/kg + 2 mg/kg MLP, day 15) was 0.59 ± 0.16. For the same substance, the “Normalized serum hAAT levels” value (single IV 8 mg/kg + 2 mg/kg MLP, day 20) was 0.74 ± 0.10, the “Normalized serum hAAT levels” value (single IV 8 mg/kg + 2 mg/kg MLP, day 29) was 0.87 ± 0.20 and the “Normalized serum hAAT levels” value (single IV 8 mg/kg + 2 mg/kg MLP, day 36) was 0.74 ± 0.08. For the same substance, the “Normalized serum hAAT levels” value (single IV 8 mg/kg + 2 mg/kg MLP, day −7) was 0.70 ± 0.15, the “Normalized serum hAAT levels” value (single IV 8 mg/kg + 4 mg/kg MLP, day 1) was 1.00 and the “Normalized serum hAAT levels” value (single IV 8 mg/kg + 4 mg/kg MLP, day 8) was 0.04 ± 0.02. The “Normalized serum hAAT levels” value (single IV 8 mg/kg + 4 mg/kg MLP, day 15) was 0.27 ± 0.05, the “Normalized serum hAAT levels” value (single IV 8 mg/kg + 4 mg/kg MLP, day 20) was 0.35 ± 0.05 and the “Normalized serum hAAT levels” value (single IV 8 mg/kg + 4 mg/kg MLP, day 29) was 0.80 ± 0.20. For the same substance, the “Normalized serum hAAT levels” value (single IV 8 mg/kg + 4 mg/kg MLP, day 36) was 1.00 ± 0.20, the “Normalized serum hAAT levels” value (single IV 8 mg/kg + 4 mg/kg MLP, day −7) was 0.70 ± 0.24 and the “Normalized serum hAAT levels” value (single IV 8 mg/kg + 8 mg/kg MLP, day 1) was 1.00. The “Normalized serum hAAT levels” value (single IV 8 mg/kg + 8 mg/kg MLP, day 8) was 0.02 ± 0.00, the “Normalized serum hAAT levels” value (single IV 8 mg/kg + 8 mg/kg MLP, day 15) was 0.13 ± 0.06 and the “Normalized serum hAAT levels” value (single IV 8 mg/kg + 8 mg/kg MLP, day 20) was 0.16 ± 0.04. For the same substance, the “Normalized serum hAAT levels” value (single IV 8 mg/kg + 8 mg/kg MLP, day 29) was 0.43 ± 0.08, the “Normalized serum hAAT levels” value (single IV 8 mg/kg + 8 mg/kg MLP, day 36) was 0.78 ± 0.23 and the “Normalized serum hAAT levels” value (single IV 8 mg/kg + 8 mg/kg MLP, day −7) was 0.89 ± 0.54. The “Serum hAAT normalized to day 1 and controls” value (mice euthanized Day 3, Day 1) was 1.000, the “Serum hAAT normalized to day 1 and controls” value (mice euthanized Day 3, Day 3) was 0.255 ± 0.040 and the “Serum hAAT normalized to day 1 and controls” value (mice euthanized Day 3, Day −2) was 1.068 ± 0.070. The “Serum hAAT normalized to day 1 and controls” value (mice euthanized Day 8, Day 1) was 1.000, the “Serum hAAT normalized to day 1 and controls” value (mice euthanized Day 8, Day 3) was 0.184 ± 0.025 and the “Serum hAAT normalized to day 1 and controls” value (mice euthanized Day 8, Day 8) was 0.054 ± 0.004. For the same substance, the “Serum hAAT normalized to day 1 and controls” value (mice euthanized Day 8, Day −2) was 0.895 ± 0.129, the “Serum hAAT normalized to day 1 and controls” value (mice euthanized Day 15, Day 1) was 1.000 and the “Serum hAAT normalized to day 1 and controls” value (mice euthanized Day 15, Day 3) was 0.243 ± 0.060. The “Serum hAAT normalized to day 1 and controls” value (mice euthanized Day 15, Day 8) was 0.066 ± 0.023, the “Serum hAAT normalized to day 1 and controls” value (mice euthanized Day 15, Day 15) was 0.095 ± 0.063 and the “Serum hAAT normalized to day 1 and controls” value (mice euthanized Day 15, Day −2) was 0.66 ± 0.121. For the same substance, the “Serum hAAT normalized to day 1 and controls” value (mice euthanized Day 22, Day 1) was 1.000, the “Serum hAAT normalized to day 1 and controls” value (mice euthanized Day 22, Day 3) was 0.202 ± 0.054 and the “Serum hAAT normalized to day 1 and controls” value (mice euthanized Day 22, Day 8) was 0.044 ± 0.010. For the same substance, the “Serum hAAT normalized to day 1 and controls” value (mice euthanized Day 22, Day 15) was 0.056 ± 0.011, the “Serum hAAT normalized to day 1 and controls” value (mice euthanized Day 22, Day 22) was 0.100 ± 0.039 and the “Serum hAAT normalized to day 1 and controls” value (mice euthanized Day 22, Day −2) was 0.779 ± 0.280. For the same substance, the “Serum hAAT normalized to day 1 and controls” value (mice euthanized Day 29, Day 1) was 1.000, the “Serum hAAT normalized to day 1 and controls” value (mice euthanized Day 29, Day 3) was 0.238 ± 0.062 and the “Serum hAAT normalized to day 1 and controls” value (mice euthanized Day 29, Day 8) was 0.052 ± 0.015. For the same substance, the “Serum hAAT normalized to day 1 and controls” value (mice euthanized Day 29, Day 15) was 0.057 ± 0.016, the “Serum hAAT normalized to day 1 and controls” value (mice euthanized Day 29, Day 22) was 0.103 ± 0.032 and the “Serum hAAT normalized to day 1 and controls” value (mice euthanized Day 29, Day 29) was 0.209 ± 0.071. The “Serum hAAT normalized to day 1 and controls” value (mice euthanized Day 29, Day −2) was 0.653 ± 0.102.
